# Measurements taken from publication PMC4393779 (Journal of neurochemistry, 2015).
# Where two headings read alike, the source gives them in different places.
# Tests used:
# DAT = conditions: intact cells; ref Chen et al., 2004b; cited from earlier work
# [1] = system: WT + W84L hDAT (co-expressed); format: binding, human; conditions: transiently co-transfected 1:1, WT + W84L, observed
# [2] = system: WT + W84L hDAT (mixed cells); assay: [3H]CFT saturation binding, mixed cells singly stably expressing WT and W84L DAT; set-up: species or system human; conditions: observed upon mixing stable cells in equal volumes
# [3] = system: WT + D436N hDAT (co-expressed); format: binding, human; conditions: transiently co-transfected 1:1, WT + D436N, observed
# D313N hDAT = D313N hDAT (Homo sapiens, UniProt Q01959, D313N); assay: [3H]CFT saturation binding, HEK-293 cells transiently transfected with D313N DAT; conditions: transiently singly transfected
# Chain of D313N hDAT (Q01959 whole entry D313N): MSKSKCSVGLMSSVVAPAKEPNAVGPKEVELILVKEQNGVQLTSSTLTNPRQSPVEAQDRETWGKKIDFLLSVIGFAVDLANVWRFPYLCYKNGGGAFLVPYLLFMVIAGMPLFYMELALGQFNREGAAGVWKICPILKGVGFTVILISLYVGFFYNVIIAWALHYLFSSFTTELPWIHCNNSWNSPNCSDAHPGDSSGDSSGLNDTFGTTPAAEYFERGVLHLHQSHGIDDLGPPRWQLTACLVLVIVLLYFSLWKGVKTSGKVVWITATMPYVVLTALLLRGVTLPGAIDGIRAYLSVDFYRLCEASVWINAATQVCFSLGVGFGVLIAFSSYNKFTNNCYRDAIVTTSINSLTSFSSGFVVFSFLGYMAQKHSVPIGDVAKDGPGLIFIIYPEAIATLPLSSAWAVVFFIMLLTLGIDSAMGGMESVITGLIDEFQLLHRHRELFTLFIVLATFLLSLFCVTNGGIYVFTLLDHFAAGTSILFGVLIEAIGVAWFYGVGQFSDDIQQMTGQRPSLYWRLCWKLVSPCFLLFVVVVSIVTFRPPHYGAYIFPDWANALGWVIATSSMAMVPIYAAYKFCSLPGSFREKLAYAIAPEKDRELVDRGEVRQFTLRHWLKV
# WT hDAT [4] = target: T1, WT hDAT (Homo sapiens, UniProt Q01959); conditions: transiently singly transfected, observed, mean ± SE
# T1 sequence (Q01959 whole entry): as the sequence (Q01959 whole entry D313N) above, with N313D counted along it
# D345N hDAT [5] = target: T2, D345N hDAT (Homo sapiens, UniProt Q01959, D345N); assay: [3H]CFT saturation binding, intact HEK-293 cells stably expressing D345N DAT; conditions: observed, mean ± SE
# T2 sequence (Q01959 whole entry D345N): as the sequence (Q01959 whole entry D313N) above, with N313D, D345N counted along it
# [6] = system: WT + D436N hDAT (mixed cells); format: binding, human; conditions: observed upon mixing stable cells in equal volumes
# [7] = system: WT + D313N hDAT (co-expressed); format: binding, human; conditions: transiently co-transfected 1:1, WT + D313N, observed
# D345N hDAT [8] = target: T2, D345N hDAT; assay: [3H]CFT saturation binding, HEK-293 cells transiently transfected with D345N DAT; conditions: transiently singly transfected
# [9] = system: W84L + D345N hDAT (mixed cells); format: binding, human; conditions: observed upon mixing stable cells in equal volumes
# W84L hDAT [10] = target: T3, W84L hDAT (Homo sapiens, UniProt Q01959, W84L); assay: [3H]CFT saturation binding, HEK-293 cells transiently transfected with W84L DAT; conditions: transiently singly transfected
# T3 sequence (Q01959 1-620 W84L): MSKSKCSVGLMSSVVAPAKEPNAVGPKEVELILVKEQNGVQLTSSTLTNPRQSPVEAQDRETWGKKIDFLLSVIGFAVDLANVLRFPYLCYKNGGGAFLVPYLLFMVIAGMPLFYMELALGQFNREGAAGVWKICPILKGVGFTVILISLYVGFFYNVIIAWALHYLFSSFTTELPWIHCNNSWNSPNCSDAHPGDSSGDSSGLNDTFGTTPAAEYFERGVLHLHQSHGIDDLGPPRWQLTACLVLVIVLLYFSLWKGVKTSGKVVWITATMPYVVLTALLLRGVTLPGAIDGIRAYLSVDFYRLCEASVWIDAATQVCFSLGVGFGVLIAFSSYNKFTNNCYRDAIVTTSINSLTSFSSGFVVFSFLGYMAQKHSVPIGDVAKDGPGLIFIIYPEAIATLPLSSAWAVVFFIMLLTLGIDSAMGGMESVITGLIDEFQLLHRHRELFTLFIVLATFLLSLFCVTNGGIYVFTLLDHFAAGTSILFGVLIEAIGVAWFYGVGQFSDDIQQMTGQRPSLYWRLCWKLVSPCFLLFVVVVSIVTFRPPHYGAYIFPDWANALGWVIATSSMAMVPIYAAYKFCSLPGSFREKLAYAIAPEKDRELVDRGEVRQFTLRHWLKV
# D436N hDAT [11] = target: T4, D436N hDAT (Homo sapiens, UniProt Q01959, D436N); assay: [3H]CFT saturation binding, intact HEK-293 cells stably expressing D436N DAT; conditions: observed, mean ± SE
# T4 sequence (Q01959 whole entry D436N): as the sequence (Q01959 whole entry D313N) above, with N313D, D436N counted along it
# D436N hDAT [12] = target: T4, D436N hDAT; assay: [3H]CFT saturation binding, HEK-293 cells transiently transfected with D436N DAT; conditions: transiently singly transfected
# [13] = system: WT + D345N hDAT (co-expressed); format: binding, human; conditions: transiently co-transfected 1:1, WT + D345N, observed
# WT hDAT [14] = target: T1, WT hDAT; assay: [3H]CFT saturation binding, intact HEK-293 cells stably expressing WT DAT; conditions: observed, mean ± SE
# W84L hDAT [15] = target: T3, W84L hDAT; conditions: stably expressing cells, observed, mean ± SE
# [16] = system: W84L + D345N hDAT (co-expressed); format: binding, human; conditions: transiently co-transfected 1:1, W84L + D345N, observed
Compound,inhibition of intact cell [3H]CFT binding (DAT),Kd [1] [nM],Kd [2] [nM],Kd [3] [nM],Bmax (D313N hDAT),Bmax (WT hDAT [4]),Bmax (D345N hDAT [5]),Kd [6] [nM],Kd [7] [nM],Bmax (D345N hDAT [8]; set paired with W84L (n=6)),Bmax (D345N hDAT [8]; set paired with WT (n=4)),Kd [9] [nM],Bmax (W84L hDAT [10]; set paired with D345N (n=7)),Bmax (W84L hDAT [10]; set paired with WT (n=5)),Bmax (D436N hDAT [11]),Bmax (D436N hDAT [12]),Kd [13] [nM],Bmax (WT hDAT [14]),Bmax (W84L hDAT [15]),Kd [16] [nM]
C[n+]1ccc(-c2ccccc2)cc1 [MPP^+],completely inhibited,–,–,–,–,–,–,–,–,–,–,–,–,–,–,–,–,–,–,–
"COC(=O)[C@H]1[C@@H](c2ccc(F)cc2)C[C@@H]2CC[C@H]1N2C [[^3H]CFT, (−)-2-β-carbomethoxy-3-β-(4-fluorophenyl)tropane]",–,4.4 ± 0.77,5.33 ± 0.95,103 ± 5,0.41± 0.03 (4) pmol/mg,0.79 ± 0.21 (4) pmol/mg,0.57 ± 0.13 (4) pmol/mg,25.9 ± 4,6.42 ± 1.1,0.51 ± 0.12 (6) pmol/mg,0.62 ± 0.10 (4) pmol/mg,2.01 ± 0.67,0.94 ± 0.13 (7) pmol/mg,0.82 ± 0.14 (5) pmol/mg,0.50± 0.08 (4) pmol/mg,0.94 ± 0.04 (3) pmol/mg,48.2 ± 10.3,0.55 ± 0.03 (6) pmol/mg,0.75 ± 0.16 (8) pmol/mg,6.75 ± 3.22
